Measurements: article PMC9250534, “Synthesis and direct assay of large macrocycle diversities by combinatorial late-stage modification at picomole scale” (Nature Communications, 2022)

These molecules were tested against MDM2 (Homo sapiens, UniProt Q00987) (assay: MDM2 binding screen of Libraries 3 and 4: displacement of fluorescent probe F-M8 at 750 nM macrocycle). Conditions: Panel b, Library 3: 63 scaffolds combinatorially acylated with 15 carboxylic acids at 30 picomole scale; displacement of fluorescent peptide probe; macrocycle 750 nM.
Sequence of MDM2 (Q00987 whole entry): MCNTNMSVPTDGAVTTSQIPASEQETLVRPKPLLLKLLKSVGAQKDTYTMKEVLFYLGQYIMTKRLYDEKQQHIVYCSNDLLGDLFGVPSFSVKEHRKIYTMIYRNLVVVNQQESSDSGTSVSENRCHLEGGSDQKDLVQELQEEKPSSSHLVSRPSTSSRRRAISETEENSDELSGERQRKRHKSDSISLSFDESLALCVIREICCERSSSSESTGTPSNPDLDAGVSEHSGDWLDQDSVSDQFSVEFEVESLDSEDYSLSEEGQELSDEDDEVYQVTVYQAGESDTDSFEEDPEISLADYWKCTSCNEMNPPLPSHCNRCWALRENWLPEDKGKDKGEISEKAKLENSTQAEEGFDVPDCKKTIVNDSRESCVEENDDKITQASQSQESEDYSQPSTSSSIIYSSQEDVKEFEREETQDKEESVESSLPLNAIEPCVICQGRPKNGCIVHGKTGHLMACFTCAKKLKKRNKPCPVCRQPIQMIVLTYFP
Outline: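 Competition with nutlin-3a was run using the fluorescein conjugate. Library members came from scaffolds reacted 6 h at room temperature with carboxylic acids (20 equiv.), HBTU and DABCO in DMSO. Quenching was overnight in Tris-Cl pH 7.4 buffer with 0.01% Tween20.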

SMILES	fraction of fluorescent probe displaced
Cn1cc(C[C@@H]2NC(=O)CN(CCNC(=O)c3ccc(Cl)s3)C(=O)C3(CC3)CNC(=O)CCSSCCNC2=O)c2ccccc21 [X-Amcp-N-Aeg-Me-Trp + Acid 14]	-0.00533
Cn1cc(C[C@@H]2NC(=O)CN(CCNC(=O)c3ccc(Cl)cc3)C(=O)C3(CC3)CNC(=O)CCSSCCNC2=O)c2ccccc21 [X-Amcp-N-Aeg-Me-Trp + Acid 25]	-0.012
Cn1cc(C[C@@H]2NC(=O)CN(CCNC(=O)c3ccc4ccccc4c3)C(=O)C3(CC3)CNC(=O)CCSSCCNC2=O)c2ccccc21 [X-Amcp-N-Aeg-Me-Trp + Acid 107]	-0.002
Cn1cc(C[C@@H]2NC(=O)CN(CCNC(=O)/C=C/c3ccc(OCc4ccccc4)cc3)C(=O)C3(CC3)CNC(=O)CCSSCCNC2=O)c2ccccc21 [X-Amcp-N-Aeg-Me-Trp + Acid 110]	0.015
Cn1cc(C[C@@H]2NC(=O)CN(CCNC(=O)c3cccc(Oc4ccccc4)c3)C(=O)C3(CC3)CNC(=O)CCSSCCNC2=O)c2ccccc21 [X-Amcp-N-Aeg-Me-Trp + Acid 111]	0.015
Cn1cc(C[C@@H]2NC(=O)CN(CCNC(=O)/C=C/c3ccc4ccccc4c3)C(=O)C3(CC3)CNC(=O)CCSSCCNC2=O)c2ccccc21 [X-Amcp-N-Aeg-Me-Trp + Acid 112]	0.028
CN1C(=O)CN(CCNC(=O)c2ccc(Cl)s2)C(=O)C2(CC2)CNC(=O)CCSSCCNC(=O)[C@@H]1Cc1c[nH]c2ccccc12 [X-Amcp-N-Aeg-NMe-Trp + Acid 14]	-0.012
CN1C(=O)CN(CCNC(=O)c2ccc(Cl)cc2)C(=O)C2(CC2)CNC(=O)CCSSCCNC(=O)[C@@H]1Cc1c[nH]c2ccccc12 [X-Amcp-N-Aeg-NMe-Trp + Acid 25]	-0.012
CN1C(=O)CN(CCNC(=O)c2ccc3ccccc3c2)C(=O)C2(CC2)CNC(=O)CCSSCCNC(=O)[C@@H]1Cc1c[nH]c2ccccc12 [X-Amcp-N-Aeg-NMe-Trp + Acid 107]	0.031
CN1C(=O)CN(CCNC(=O)/C=C/c2ccc(OCc3ccccc3)cc2)C(=O)C2(CC2)CNC(=O)CCSSCCNC(=O)[C@@H]1Cc1c[nH]c2ccccc12 [X-Amcp-N-Aeg-NMe-Trp + Acid 110]	-0.00533
CN1C(=O)CN(CCNC(=O)c2cccc(Oc3ccccc3)c2)C(=O)C2(CC2)CNC(=O)CCSSCCNC(=O)[C@@H]1Cc1c[nH]c2ccccc12 [X-Amcp-N-Aeg-NMe-Trp + Acid 111]	0.00133
CN1C(=O)CN(CCNC(=O)/C=C/c2ccc3ccccc3c2)C(=O)C2(CC2)CNC(=O)CCSSCCNC(=O)[C@@H]1Cc1c[nH]c2ccccc12 [X-Amcp-N-Aeg-NMe-Trp + Acid 112]	-0.019
O=C1CCSSCCNC(=O)[C@H](Cc2c[nH]c3ccccc23)NC(=O)CN(CCNC(=O)c2ccc(Cl)cc2)C(=O)C2(CC2)CN1 [X-Amcp-N-Aeg-Trp + Acid 25]	0.00133
O=C1CCSSCCNC(=O)C(Cc2c[nH]c3ccccc23)NC(=O)CN(CCNC(=O)C2CC2c2ccccc2)C(=O)C2(CC2)CN1 (stereo not shown) [X-Amcp-N-Aeg-Trp + Acid 105]	-0.015
O=C1CCSSCCNC(=O)[C@H](Cc2c[nH]c3ccccc23)NC(=O)CN(CCNC(=O)c2ccc3ccccc3c2)C(=O)C2(CC2)CN1 [X-Amcp-N-Aeg-Trp + Acid 107]	0.018
O=C(/C=C/c1ccc(OCc2ccccc2)cc1)NCCN1CC(=O)N[C@@H](Cc2c[nH]c3ccccc23)C(=O)NCCSSCCC(=O)NCC2(CC2)C1=O [X-Amcp-N-Aeg-Trp + Acid 110]	0.015
O=C(/C=C/c1ccc2ccccc2c1)NCCN1CC(=O)N[C@@H](Cc2c[nH]c3ccccc23)C(=O)NCCSSCCC(=O)NCC2(CC2)C1=O [X-Amcp-N-Aeg-Trp + Acid 112]	0.041
CC(Oc1cccc(Cl)c1)C(=O)NCCN1CC(=O)N[C@@H](Cc2c[nH]c3ccccc23)C(=O)NCCSSCCC(=O)NCC2(CC2)C1=O (stereo partly shown) [X-Amcp-N-Aeg-Trp + Acid 113]	0.035
O=C(CCS(=O)(=O)c1ccccc1)NCCN1CC(=O)N[C@@H](Cc2c[nH]c3ccccc23)C(=O)NCCSSCCC(=O)NCC2(CC2)C1=O [X-Amcp-N-Aeg-Trp + Acid 114]	0.021
O=C(/C=C/c1ccc(Cl)cc1)NC[C@H]1NC(=O)[C@@H]2CN(CCO2)C(=O)CCSSCCNC(=O)[C@H](Cc2cccc3ccccc23)NC1=O [X-Cop-D-Dap-1-NaI + Acid 108]	0.028
O=C(/C=C/c1ccc(OCc2ccccc2)cc1)NC[C@H]1NC(=O)[C@@H]2CN(CCO2)C(=O)CCSSCCNC(=O)[C@H](Cc2cccc3ccccc23)NC1=O [X-Cop-D-Dap-1-NaI + Acid 110]	0.048
O=C(NCC1NC(=O)C2CN(CCO2)C(=O)CCSSCCNC(=O)C(Cc2cccc3ccccc23)NC1=O)c1cccc(Oc2ccccc2)c1 [X-Cop-D-Dap-1-NaI + Acid 111]	0.008

SMILES	fraction of fluorescent probe displaced
CC(Oc1cccc(Cl)c1)C(=O)NC[C@H]1NC(=O)[C@@H]2CN(CCO2)C(=O)CCSSCCNC(=O)[C@H](Cc2cccc3ccccc23)NC1=O (stereo partly drawn) [X-Cop-D-Dap-1-NaI + Acid 113]	0.008
O=C(CCS(=O)(=O)c1ccccc1)NC[C@H]1NC(=O)[C@@H]2CN(CCO2)C(=O)CCSSCCNC(=O)[C@H](Cc2cccc3ccccc23)NC1=O [X-Cop-D-Dap-1-NaI + Acid 114]	0.008
O=C(NC[C@H]1NC(=O)[C@@H]2CN(CCO2)C(=O)CCSSCCNC(=O)[C@H](Cc2ccc3ccccc3c2)NC1=O)c1ccc(Cl)s1 [X-Cop-D-Dap-2-Nal + Acid 14]	-0.00533
O=C(NC[C@H]1NC(=O)[C@@H]2CN(CCO2)C(=O)CCSSCCNC(=O)[C@H](Cc2ccc3ccccc3c2)NC1=O)c1ccc(Cl)cc1 [X-Cop-D-Dap-2-Nal + Acid 25]	0.00133
O=C(NCC1NC(=O)C2CN(CCO2)C(=O)CCSSCCNC(=O)C(Cc2ccc3ccccc3c2)NC1=O)c1ccc2ccccc2c1 [X-Cop-D-Dap-2-Nal + Acid 107]	0.00455
O=C(C=Cc1ccc(OCc2ccccc2)cc1)NCC1NC(=O)C2CN(CCO2)C(=O)CCSSCCNC(=O)C(Cc2ccc3ccccc3c2)NC1=O [X-Cop-D-Dap-2-Nal + Acid 110]	0.035
O=C(NC[C@H]1NC(=O)[C@@H]2CN(CCO2)C(=O)CCSSCCNC(=O)[C@H](Cc2ccc3ccccc3c2)NC1=O)c1cccc(Oc2ccccc2)c1 [X-Cop-D-Dap-2-Nal + Acid 111]	0.00133
O=C(/C=C/c1ccc2ccccc2c1)NC[C@H]1NC(=O)[C@@H]2CN(CCO2)C(=O)CCSSCCNC(=O)[C@H](Cc2ccc3ccccc3c2)NC1=O [X-Cop-D-Dap-2-Nal + Acid 112]	0.021
O=C(CCS(=O)(=O)c1ccccc1)NC[C@H]1NC(=O)[C@@H]2CN(CCO2)C(=O)CCSSCCNC(=O)[C@H](Cc2ccc3ccccc3c2)NC1=O [X-Cop-D-Dap-2-Nal + Acid 114]	-0.00533
O=C(NC[C@H]1NC(=O)[C@@H]2CN(CCO2)C(=O)CCSSCCNC(=O)[C@H](Cc2c[nH]c3cc(Cl)ccc23)NC1=O)c1ccc(Cl)s1 [X-Cop-D-Dap-Cl-Trp + Acid 14]	-0.00533
O=C(/C=C/c1ccc(OCc2ccccc2)cc1)NC[C@H]1NC(=O)[C@@H]2CN(CCO2)C(=O)CCSSCCNC(=O)[C@H](Cc2c[nH]c3cc(Cl)ccc23)NC1=O [X-Cop-D-Dap-Cl-Trp + Acid 110]	0.035
O=C(/C=C/c1ccc2ccccc2c1)NC[C@H]1NC(=O)[C@@H]2CN(CCO2)C(=O)CCSSCCNC(=O)[C@H](Cc2c[nH]c3cc(Cl)ccc23)NC1=O [X-Cop-D-Dap-Cl-Trp + Acid 112]	0.055
O=C(/C=C/c1ccc(OCc2ccccc2)cc1)NC[C@H]1NC(=O)[C@@H]2CN(CCO2)C(=O)CCSSCCNC(=O)[C@@H](Cc2c[nH]c3ccccc23)NC1=O [X-Cop-D-Dap-D-Trp + Acid 110]	0.015
O=C(/C=C/c1ccc2ccccc2c1)NC[C@H]1NC(=O)[C@@H]2CN(CCO2)C(=O)CCSSCCNC(=O)[C@@H](Cc2c[nH]c3ccccc23)NC1=O [X-Cop-D-Dap-D-Trp + Acid 112]	0.021
CC(Oc1cccc(Cl)c1)C(=O)NCC1NC(=O)C2CN(CCO2)C(=O)CCSSCCNC(=O)C(Cc2c[nH]c3ccccc23)NC1=O [X-Cop-D-Dap-D-Trp + Acid 113]	0.008
Cn1cc(C[C@@H]2NC(=O)[C@@H](CNC(=O)c3ccc(Cl)s3)NC(=O)[C@@H]3CN(CCO3)C(=O)CCSSCCNC2=O)c2ccccc21 [X-Cop-D-Dap-Me-Trp + Acid 14]	-0.00533
Cn1cc(C[C@@H]2NC(=O)[C@@H](CNC(=O)c3ccc4ccccc4c3)NC(=O)[C@@H]3CN(CCO3)C(=O)CCSSCCNC2=O)c2ccccc21 [X-Cop-D-Dap-Me-Trp + Acid 107]	0.050
Cn1cc(C[C@@H]2NC(=O)[C@@H](CNC(=O)/C=C/c3ccc(Cl)cc3)NC(=O)[C@@H]3CN(CCO3)C(=O)CCSSCCNC2=O)c2ccccc21 [X-Cop-D-Dap-Me-Trp + Acid 108]	0.021
Cn1cc(CC2NC(=O)C(CNC(=O)C=Cc3ccc(OCc4ccccc4)cc3)NC(=O)C3CN(CCO3)C(=O)CCSSCCNC2=O)c2ccccc21 [X-Cop-D-Dap-Me-Trp + Acid 110]	0.028
CN1C(=O)[C@@H](CNC(=O)c2ccc(Cl)s2)NC(=O)[C@@H]2CN(CCO2)C(=O)CCSSCCNC(=O)[C@@H]1Cc1c[nH]c2ccccc12 [X-Cop-D-Dap-NMe-Trp + Acid 14]	-0.019
CN1C(=O)[C@@H](CNC(=O)c2ccc(Cl)cc2)NC(=O)[C@@H]2CN(CCO2)C(=O)CCSSCCNC(=O)[C@@H]1Cc1c[nH]c2ccccc12 [X-Cop-D-Dap-NMe-Trp + Acid 25]	-0.019
